Values of other authors in US11077125B2, “Ophthalmic composition containing sulfasalazine and hyaluronic acid” (KUKJE PHARMA CO., LTD., priority 2016, dated 2021).
Converted amounts (≈) assume the structure as drawn.

Conditions: in water

solubility: 46.4 µg/mL (≈ 116 µM)
SMILES: O=C(O)c1cc(/N=N/c2ccc(S(=O)(=O)Nc3ccccn3)cc2)ccc1O [Sulfasalazine]
